The results in this text go back to ChEMBL document CHEMBL1201862, “PubChem BioAssay data set” (2004).

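In this assay, cells in 96-well plates receive the compound at five concentrations for 48 hours. Endpoints are linearly interpolated between the surrounding concentrations. GI50 = concentration required for 50% inhibition of growth.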 Activity calls are given as the source filed them. Rule as the data show it: active = GI50 up to about 1.1 µM and inactive = higher.

Test in all cases: inhibition of tumour cell growth, NCI panel, 48 h
In assay [1] the test system is 786-0.
Assay [2] relates to ACHN.
Assay [3] concerns COLO 205.
Assay [4] relates to HCT-15.
Assay [5] concerns IGROV-1.
Assay [6] deals with Malme-3M.
Assay [7] deals with OVCAR-3.
In assay [8] the test system is OVCAR-4.
Assay [9] has as its system OVCAR-5.
Assay [10] concerns SK-MEL-2.
Assay [11] has as its system SK-MEL-5.
Assay [12] concerns SK-OV-3.
For assay [13], the system named is UACC-257.
In assay [14] the test system is NCI-H23.
Assay [15] concerns TK-10.
Assay [16] deals with U-251.

In the case of `O=C1C=C[C@@]23CC1C(O)C[C@H]2C=Cc1ccccc13` (stereo not given in full), the GI50 is > 100 µM (inactive) in [1]; > 100 µM (inactive) in [2]; > 100 µM (inactive) in assay [3]; 82.2 µM in [4]; > 100 µM (inactive) in assay [5]; > 100 µM (inactive) in assay [6]. Further, the GI50 in [7], in assay [8], in [9], in [10], in assay [11] and in assay [12] was > 100 µM (inactive) throughout. For the same molecule, in [13], the GI50 was > 100 µM (inactive).

Take `O=C(c1ccccc1)N1CCN2CCN=C(c3ccccc3)C21c1ccccc1` (stereo not given): the GI50 was > 100 µM (inactive) in assay [1]; 63.1 µM (inactive) in assay [2]; > 100 µM (inactive) in assay [3]; > 100 µM (inactive) in [5]; 35.5 µM (inactive) in [6]; 80.2 µM (inactive) in [14]. Moreover, the GI50 in [7] is 79.1 µM (inactive); in assay [8], 29.4 µM (inactive); in [10] it was > 100 µM (inactive); in [11], > 100 µM (inactive); in assay [12] it was > 100 µM (inactive); in [15], > 100 µM (inactive). For the same molecule, the GI50 in [16] was > 100 µM (inactive); in [13], 25.8 µM (inactive).

For the molecule `COc1c(C)cc(O)cc1C=O`, the GI50 is > 100 µM (inactive) in [1]; > 100 µM (inactive) in assay [2]; > 100 µM (inactive) in assay [3]; over 100 µM in assay [4]; > 100 µM (inactive) in [5]; > 100 µM (inactive) in assay [6]. The GI50 in assay [7], in [8], in assay [9], in assay [10], in assay [11] and in [12] was > 100 µM (inactive) in each case. Besides, the GI50 in assay [15], in [16] and in assay [13] was > 100 µM (inactive) each time.

Consider `COc1ccc(-c2cnoc2-c2ccc(OC)c(OC)c2)cc1OC`, for which the GI50 is 1.64 µM (inactive) in assay [1]; 4.68 µM (inactive) in assay [2]; 1.18 µM (inactive) in assay [3]; 0.4 µM in assay [4]; 1.29 µM (inactive) in assay [5]; 2.15 µM (inactive) in assay [6]. For the same molecule, the GI50 in assay [14] is 1.24 µM (inactive); in assay [7], 1.31 µM (inactive); in assay [8], 18.9 µM (inactive); in assay [9] it was 3.72 µM (inactive); in assay [10] it was 1.08 µM (active); in assay [11], 0.908 µM (active). The GI50 in assay [12] is 1.47 µM (inactive); in assay [15], 3.85 µM (inactive); in assay [16] it was 2.34 µM (inactive); in [13], 5.53 µM (inactive).

Take `O=C(/C=C(\O)C(=O)O)/C=C(\O)c1ccc(Cl)cc1`: the GI50 in assay [1] is > 100 µM (inactive); in [2] it was > 100 µM (inactive); in [3], > 100 µM (inactive); in assay [4] it was over 100 µM; in assay [5], > 100 µM (inactive); in assay [6], > 100 µM (inactive). Moreover, the GI50 in assay [14], in assay [7], in [8], in [9], in [10] and in assay [11] was > 100 µM (inactive) throughout. Further, the GI50 in [12], in assay [15], in [16] and in [13] was > 100 µM (inactive) throughout.

Take `CN(C)c1ccc(/C=C2\CCc3ccccc3C2=O)cc1Br`: the GI50 in assay [1] was > 100 µM (inactive); in assay [2], > 100 µM (inactive); in assay [3] it was 68.9 µM (inactive); in assay [4] it was 71.1 µM; in [6], 42.8 µM (inactive); in [14], 68.7 µM (inactive). The GI50 in assay [7] was 49 µM (inactive); in assay [8], 83.9 µM (inactive); in assay [9], > 100 µM (inactive); in assay [10], 48.5 µM (inactive); in [11], 25.8 µM (inactive); in assay [12], > 100 µM (inactive). Besides, the results for the GI50 in assay [15], in assay [16] and in assay [13] were > 100 µM (inactive), 71.8 µM (inactive) and 43.6 µM (inactive), respectively.

Regarding `CCN(CC)C(=O)CNC(=O)OC(C)(C)C`, the GI50 in assay [1] is > 100 µM (inactive); in assay [2], > 100 µM (inactive); in assay [4] it was over 100 µM; in assay [5] it was > 100 µM (inactive); in [6], > 100 µM (inactive); in assay [14], > 100 µM (inactive). For the same molecule, the GI50 in assay [7], in assay [8], in assay [9], in [10], in assay [11] and in assay [12] was > 100 µM (inactive) each time. Also, the GI50 in assay [15], in assay [16] and in assay [13] was > 100 µM (inactive) throughout.

As to `CC(=O)NC1=C(NCCN(C)C)C(=O)c2ccccc2C1=O`, the GI50 was 18.1 µM (inactive) in [1]; 16.9 µM (inactive) in assay [2]; 9.95 µM (inactive) in assay [3]; 9.51 µM in assay [4]; 14.7 µM (inactive) in [5]; 7.62 µM (inactive) in assay [6]. Further, the GI50 was 11.5 µM (inactive) in assay [14]; 14.7 µM (inactive) in assay [7]; 8.93 µM (inactive) in assay [8]; 15.3 µM (inactive) in [10]; 7.21 µM (inactive) in [11]; > 50 µM (inactive) in [12]. In addition, the GI50 in [15] is 27.8 µM (inactive); in assay [16] it was 10.3 µM (inactive); in [13], 9.25 µM (inactive).

Regarding `O=C1c2c(O)cccc2C(C(=O)CCCCCC(=O)C2c3cccc(O)c3C(=O)c3c(O)cccc32)c2cccc(O)c21`, the GI50 in assay [1] was 10.6 µM (inactive); in assay [2], 2.72 µM (inactive); in assay [3] it was 1.98 µM (inactive); in [4], 1 µM; in assay [5], 1.14 µM (inactive); in assay [6] it was 2.39 µM (inactive). Further, the GI50 is 0.692 µM (active) in assay [14]; 0.938 µM (active) in assay [7]; 1.5 µM (inactive) in assay [8]; 3.22 µM (inactive) in assay [9]; 1.03 µM (active) in assay [10]; 0.555 µM (active) in assay [11]. Moreover, the GI50 in assay [12] is 0.879 µM (active); in [15] it was 3.82 µM (inactive); in [16] it was 0.766 µM (active); in assay [13] it was 0.755 µM (active).

Consider `COC(=O)C(=O)C(C(=O)C=C(C)C)C(=O)C(=O)Nc1cc(C(F)(F)F)ccc1Cl` (stereo not given), for which the GI50 in assay [1] is > 100 µM (inactive); in [2], > 100 µM (inactive); in assay [3] it was 52.2 µM (inactive); in assay [4], over 100 µM; in assay [5], > 100 µM (inactive); in [6], > 100 µM (inactive). Besides, the GI50 in assay [14], in [7], in [8], in [9], in assay [10] and in assay [11] was > 100 µM (inactive) throughout. The GI50 in assay [12] was > 100 µM (inactive); in assay [15] it was > 100 µM (inactive); in assay [16], > 100 µM (inactive); in [13], 70.3 µM (inactive).

In the case of `CC(=O)c1cccc(NC(=O)C(=O)Nn2c(N)nnc2N)c1`, the GI50 in assay [1] was > 100 µM (inactive); in assay [2], > 100 µM (inactive); in assay [3] it was > 100 µM (inactive); in [4] it was over 100 µM; in assay [5], > 100 µM (inactive); in assay [6] it was > 100 µM (inactive). Moreover, the GI50 in [14], in assay [8], in [9], in [10], in assay [11] and in [12] was > 100 µM (inactive) each time. The GI50 in assay [15], in [16] and in [13] was > 100 µM (inactive) throughout.

As to `Cc1cc(N(CCC#N)CCC#N)ccc1/N=N/c1ccc(Br)cc1`, the GI50 in assay [1] was 13.2 µM (inactive); in assay [2], 9.12 µM (inactive); in assay [3], > 100 µM (inactive); in [4], 5.56 µM; in assay [5] it was 10.9 µM (inactive); in assay [6], 53.6 µM (inactive). Further, the GI50 in assay [14] is 17.5 µM (inactive); in [7] it was > 44.2 µM (inactive); in assay [8], > 100 µM (inactive); in assay [9], > 100 µM (inactive); in assay [10], 15.1 µM (inactive); in [11], 12.3 µM (inactive). In addition, the GI50 in assay [12] was 2.64 µM (inactive); in assay [15], 14.3 µM (inactive); in assay [16], 19.5 µM (inactive); in [13], > 100 µM (inactive).

As for `C=CC1C(OC2OC(CO)C(O)C(O)C2O)OC=C(C(=O)OC)C1CC=O` (stereo not given), the GI50 in [1] is > 100 µM (inactive); in assay [2] it was > 100 µM (inactive); in [3], > 100 µM (inactive); in assay [4], over 100 µM; in assay [5], > 100 µM (inactive); in [6], > 100 µM (inactive). The GI50 in assay [14], in assay [7], in assay [8], in assay [10], in assay [11] and in assay [12] was > 100 µM (inactive) each time. In assay [16], the GI50 was > 100 µM (inactive).
